Patent US20240246940A1, “HETEROARYL DERIVATIVE COMPOUND AND USE THEREOF” (VORONOI INC., priority 2021, published 2024)

How the values were obtained:
[1] = system: SK-BR-3 cells (HER2 overexpressing cell line); assay: SK-BR-3 cell proliferation inhibitory activity (CellTiter-Glo, 120 hours); assay type: cell-based; conditions: Homo sapiens
Method in brief: (§1)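 Plate cells (HaCaT 3000/well, others 5000/well), then allow 24 h or 48 h before dosing, with the longer wait for SK-BR-3 and BT-474. Add compounds as 3-fold series, or 5-fold for N-87, at 11 concentrations each. Read viability luminescence, compute growth % against control and derive GI50.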

[2] = system: HaCaT cells (EGFR expressing cell line); assay: HaCaT cell proliferation inhibitory activity (CellTiter-Glo, 72 hours); assay type: cell-based; conditions: Homo sapiens
Method in brief: as §1

Compound | GI50 [1] | GI50 [2]
C=CC(=O)N1CCC(Oc2cc3c(Nc4cc(-c5ccco5)ccc4OC)ncnc3cc2OC)C(C)C1 (stereo not drawn) [Example 148, 1-(4-((4-((5-(furan-2-yl)-2-methoxyphenyl)amino)-7-methoxy-quinazolin-6-yl)oxy)-3-methylpiperidin-1-yl)prop-2-en-1-one] | ≤ 150 nM | ≤ 150 nM
C=CC(=O)N1CCC(Oc2cc3c(Nc4cc(-c5ccncc5)ccc4OC)ncnc3cc2OC)CC1 [Example 149, 1-(4-((7-methoxy-4-((2-methoxy-5-(pyridin-4-yl)phenyl)amino)quinazolin-6-yl)oxy)piperidin-1-yl)prop-2-en-1-one] | 150 to 1000 nM | 150 to 1000 nM
C=CC(=O)N1CCCC(Oc2cc3c(Nc4cc(-c5ccco5)ccc4OC)ncnc3cc2OC)C1 (stereo not drawn) [Example 162, 1-(3-((4-((5-(furan-2-yl)-2-methoxyphenyl)amino)-7-methoxy-quinazolin-6-yl)oxy)piperidin-1-yl)prop-2-en-1-one] | > 1000 nM | 150 to 1000 nM
C=CC(=O)N1CCC(Oc2cc3c(Nc4cc(-c5ccco5)ccc4OC)ncnc3cc2OC)CC1C(F)(F)F (stereo not drawn) [Example 164, 1-(4-((4-((5-(furan-2-yl)-2-methoxyphenyl)amino)-7-methoxy-quinazolin-6-yl)oxy)-2-(trifluoromethyl)piperidin-1-yl)prop-2-en-1-one] | 150 to 1000 nM | ≤ 150 nM
C=CC(=O)N1CCC(Oc2cc3c(Nc4cc(-c5ccc(F)cc5F)ccc4OC)ncnc3cc2OC)CC1C(F)(F)F (stereo not drawn) [Example 165, 1-(4-((4-((2′,4′-difluoro-4-methoxy-[1,1′-biphenyl]-3-yl)amino)-7-methoxy-quinazolin-6-yl)oxy)-2-(trifluoromethyl)piperidin-1-yl)prop-2-en-1-one] | > 1000 nM | 150 to 1000 nM
C=CC(=O)N1C2CCC1CC(Oc1cc3c(Nc4cc(-c5ccco5)ccc4OC)ncnc3cc1OC)C2 (stereo not drawn) [Example 166, 1-(3-((4-((5-(furan-2-yl)-2-methoxyphenyl)amino)-7-methoxy-quinazolin-6-yl)oxy)-8-azabicyclo [3.2.1]octan-8-yl)prop-2-en-1-one] | ≤ 150 nM | ≤ 150 nM
C=CC(=O)N1CCC(Oc2cc3c(Nc4cc(-c5cccc(N)c5)ccc4OC)ncnc3cc2OC)CC1 [Example 180, 1-(4-((4-((3′-amino-4-methoxy-[1,1′-biphenyl]-3-yl)amino)-7-methoxy-quinazolin-6-yl)oxy)piperidin-1-yl)prop-2-en-1-one] | 150 to 1000 nM | > 1000 nM
C=CC(=O)N1CC(Oc2cc3c(Nc4cc(-c5cccc(NC(=O)C6CC6)c5)ccc4OC)ncnc3cc2OC)C1 [Example 227, N-(3′-((6-((1-acryloylazetidin-3-yl)oxy)-7-methoxy-quinazolin-4-yl)amino)-4′-methoxy-[1,1′-biphenyl]-3-yl)cyclopropan-carboxamide] | 150 to 1000 nM | > 1000 nM
C=CC(=O)N1CC(Oc2cc3c(Nc4cc(-c5ccnc6c(NC(=O)C7CC7)snc56)ccc4OC)ncnc3cc2OC)C1 [Example 234, N-(7-(3-((6-((1-acryloylazetidin-3-yl)oxy)-7-methoxyquinazolin-4-yl)amino)-4-methoxyphenyl)isothiazolo[4,3-b]pyridin-3-yl)cyclopropancarboxamide] | 150 to 1000 nM | 150 to 1000 nM
C=CC(=O)N1CC(Oc2cc3c(Nc4cc(-c5cccc(NC(=O)N6C(=O)OC[C@H]6c6ccccc6)c5)ccc4OC)ncnc3cc2OC)C1 [Example 236, (R)-N-(3′-((6-((1-acryloylazetidin-3-yl)oxy)-7-methoxyquinazolin-4-yl)amino)-4′-methoxy-[1,1′-biphenyl]-3-yl)-2-oxo-4-phenyloxazolidin-3-carboxamide] | 150 to 1000 nM | > 1000 nM
C=CC(=O)N1CC(Oc2cc3c(Nc4cc(-c5cccc(NC(=O)N6C(=O)OC[C@@H]6c6ccccc6)c5)ccc4OC)ncnc3cc2OC)C1 [Example 237, (S)-N-(3′-((6-((1-acryloylazetidin-3-yl)oxy)-7-methoxyquinazolin-4-yl)amino)-4′-methoxy-[1,1′-biphenyl]-3-yl)-2-oxo-4-phenyloxazolidin-3-carboxamide] | 150 to 1000 nM | > 1000 nM
C=CC(=O)N1CCC(Oc2cc3c(Nc4cc(-c5ccco5)ccc4OC)ncnc3cc2OCC)CC1 [Example 238, 1-(4-((7-ethoxy-4-((5-(furan-2-yl)-2-methoxyphenyl)amino)quinazolin-6-yl)oxy)piperidin-1-yl)prop-2-en-1-one] | ≤ 150 nM | ≤ 150 nM
C=CC(=O)N1CC(Oc2cc3c(Nc4cc(-c5cccs5)ccc4OC4CCN(C)C4)ncnc3cc2OC)C1 (stereo not drawn) [Example 240, 1-(3-((7-methoxy-4-((2-((1-methylpyrrolidin-3-yl)oxy)-5-(thiophen-2-yl)phenyl)amino)quinazolin-6-yl)oxy)azetidin-1-yl)prop-2-en-1-one] | ≤ 150 nM | ≤ 150 nM
C=CC(=O)N1CC(Oc2cc3c(Nc4cc(-c5ccco5)ccc4OC4CCN(C)C4)ncnc3cc2OC)C1 (stereo not drawn) [Example 241, 1-(3-((4-((5-(furan-2-yl)-2-((1-methylpyrrolidin-3-yl)oxy)phenyl)amino)-7-methoxyquinazolin-6-yl)oxy)azetidin-1-yl)prop-2en-1-one] | ≤ 150 nM | ≤ 150 nM
C=CC(=O)N1CC(Oc2cc3c(Nc4cc(-c5ccn6ncnc6c5)ccc4OC4CCN(C)C4)ncnc3cc2OC)C1 (stereo not drawn) [Example 242] | 150 to 1000 nM | ≤ 150 nM
C=CC(=O)N1CC(Oc2cc3c(Nc4cc(-c5cccs5)ccc4OC4CCOCC4)ncnc3cc2OC)C1 [Example 248, 1-(3-((7-methoxy-4-((2-((tetrahydro-2H-pyran-4-yl)oxy)-5-(thiophen-2-yl)phenyl)amino)quinazolin-6-yl)oxy)azetidin-1-yl)prop-2-en-1-one] | ≤ 150 nM | ≤ 150 nM
C=CC(=O)N1CC(Oc2cc3c(Nc4cc(-c5ccco5)ccc4OC4CCOCC4)ncnc3cc2OC)C1 [Example 249, 1-(3-((4-((5-(furan-2-yl)-2-((tetrahydro-2H-pyran-4-yl)oxy)phenyl)amino)-7-methoxyquinazolin-6-yl)oxy)azetidin-1-yl)prop-2-en-1-one] | 150 to 1000 nM | ≤ 150 nM
C=CC(=O)N1CCC(Oc2cc3c(Nc4cc(-c5cccs5)ccc4OC4CCN(C)C4)ncnc3cc2OC)CC1 (stereo not drawn) [Example 250, 1-(4-((7-methoxy-4-((2-((1-methylpyrrolidin-3-yl)oxy)-5-(thiophen-2-yl)phenyl)amino)quinazolin-6-yl)oxy)piperidin-1-yl)prop-2-en-1-one] | ≤ 150 nM | ≤ 150 nM
C=CC(=O)N1CCC(Oc2cc3c(Nc4cc(-c5ccco5)ccc4OC4CCN(C)C4)ncnc3cc2OC)CC1 (stereo not drawn) [Example 251, 1-(4-((4-((5-(furan-2-yl)-2-((1-methylpyrrolidin-3-yl)oxy)phenyl)amino)-7-methoxyquinazolin-6-yl)oxy)piperidin-1-yl)prop-2-en-1-one] | ≤ 150 nM | ≤ 150 nM
C=CC(=O)N1CCC(Oc2cc3c(Nc4cc(-c5ccco5)ccc4OC4CC4)ncnc3cc2OC)CC1 [Example 253, 1-(4-((4-((2-cyclopropoxy-5-(furan-2-yl)phenyl)amino)-7-methoxyquinazolin-6-yl)oxy)piperidin-1-yl)prop-2-en-1-one] | ≤ 150 nM | ≤ 150 nM
C=CC(=O)N1CCC(Oc2cc3c(Nc4cc(-c5ccco5)ccc4OC4COC4)ncnc3cc2OC)CC1 [Example 255, 1-(4-((4-((5-(furan-2-yl)-2-(oxetan-3-yloxy)phenyl)amino)-7-methoxyquinazolin-6-yl)oxy)piperidin-1-yl)prop-2-en-1-one] | ≤ 150 nM | ≤ 150 nM
C=CC(=O)N1CCC(Oc2cc3c(Nc4cc(-c5cccs5)ccc4OC4CCOCC4)ncnc3cc2OC)CC1 [Example 257, 1-(4-((7-methoxy-4-((2-((tetrahydro-2H-pyran-4-yl)oxy)-5-(thiophen-2-yl)phenyl)amino)quinazolin-6-yl)oxy)piperidin-1-yl)prop-2-en-1-one] | 150 to 1000 nM | ≤ 150 nM
C=CC(=O)N1CCC(Oc2cc3c(Nc4cc(-c5ccco5)ccc4OC4CCOCC4)ncnc3cc2OC)CC1 [Example 258, 1-(4-((4-((5-(furan-2-yl)-2-((tetrahydro-2H-pyran-4-yl)oxy)phenyl)amino)-7-methoxyquinazolin-6-yl)oxy)piperidin-1-yl)prop-2-en-1-one] | 150 to 1000 nM | ≤ 150 nM
C=CC(=O)N1CCC(Oc2cc3c(Nc4cc(-c5ccco5)ccc4OCCOC)ncnc3cc2OC)CC1 [Example 259, 1-(4-((4-((5-(furan-2-yl)-2-(2-methoxyethoxy)phenyl)amino)-7-methoxyquinazolin-6-yl)oxy)piperidin-1-yl)prop-2-en-1-one] | ≤ 150 nM | ≤ 150 nM
C=CC(=O)N1CCC(Nc2cc3c(Nc4cc(-c5ccco5)ccc4OC)ncnc3cc2OCCOC)CC1 [Example 262, 1-(4-((4-((5-(furan-2-yl)-2-methoxyphenyl)amino)-7-(2-methoxyethoxy)quinazolin-6-yl)amino)piperidin-1-yl)prop-2-en-1-one] | ≤ 150 nM | ≤ 150 nM
C=CC(=O)N1CCC(Nc2cc3c(Nc4cc(-c5ccc(F)cc5F)ccc4OC)ncnc3cc2OCCCN2CCOCC2)CC1 [Example 269, 1-(4-((4-((2′,4′-difluoro-4-methoxy-[1,1′-biphenyl]-3-yl)amino)-7-(3-morpholinopropoxy)quinazolin-6-yl)amino)piperidin-1-yl)prop-2-en-1-one] | ≤ 150 nM | ≤ 150 nM
C=CC(=O)Nc1cc2c(Nc3cc(-c4ccco4)ccc3OC)ncnc2cc1OCCN1CCOCC1 [Example 271, N-(4-((5-(furan-2-yl)-2-methoxyphenyl)amino)-7-(2-morpholinoethoxy)quinazolin-6-yl)acrylamide] | ≤ 150 nM | ≤ 150 nM
